The text below walks through data of US6472418B1, “Non-peptide NK1 receptors antagonists” (Warner-Lambert Company, priority 1998, dated 2002).

As a reminder, the IC50 is the concentration needed to halve the response being measured.

T1 sequence (P25103 whole entry): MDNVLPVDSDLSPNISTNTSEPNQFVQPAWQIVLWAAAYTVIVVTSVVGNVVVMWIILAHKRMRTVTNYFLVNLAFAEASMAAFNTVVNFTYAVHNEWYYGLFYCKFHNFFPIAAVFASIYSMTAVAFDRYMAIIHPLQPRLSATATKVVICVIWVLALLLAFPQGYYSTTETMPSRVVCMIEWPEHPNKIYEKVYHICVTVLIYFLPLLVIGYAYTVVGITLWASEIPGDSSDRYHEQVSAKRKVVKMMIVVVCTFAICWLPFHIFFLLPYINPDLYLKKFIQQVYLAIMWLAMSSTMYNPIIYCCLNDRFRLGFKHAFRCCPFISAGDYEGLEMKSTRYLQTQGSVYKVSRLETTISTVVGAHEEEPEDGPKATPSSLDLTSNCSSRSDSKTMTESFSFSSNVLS

The first test has as its target T1, Human NK1 Receptor (Homo sapiens, UniProt P25103).
T1 construct: endogenous in cells; host or cells: Human lymphoma IM9 cells (whole cells)
Nature of the test: In Vitro Human NK1 Receptor Binding Assay ([125I]Bolton-Hunter substance P displacement, IM9 cells). To be noted: Human lymphoma IM9 cells, [125I]Bolton-Hunter substance P (0.05-0.1 nM), 50 min at 21° C.; Table 1; read-out: NK1 binding IC50. The method in brief: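 Radioligand displacement on whole IM9 human lymphoma cells (2.5×10^6 cells/mL) using [125I]Bolton-Hunter substance P (0.05-0.1 nM), 50 min at 21° C in Tris pH 7.4/MnCl2 buffer with protease inhibitors. Non-specific binding defined by […] [Sar9, Met(O2)11] substance P. Filtration, gamma counting, iterative curve fitting.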
Regarding `C[C@H](NC(=O)[C@@H](Cc1c[nH]c2ccccc12)NCc1ccc(Cl)s1)c1ccccc1` (relative stereo) [Example 12, 2-[(5-Chloro-thiophen-2-ylmethyl)-amino]-3-(1H-indol-3-yl)-N-(1-phenyl-ethyl)-propionamide, [R(R*,S*)]], the half-maximal inhibitory concentration (IC50) stood at 14 nM.

Still in this test, the particulars now being: Human lymphoma IM9 cells, [125I]Bolton-Hunter substance P; Table 3, array-synthesis products; read-out: IC50 (nM) hNK1.
Consider `O=C(NCCn1cccc1)C(Cc1c[nH]c2ccccc12)NCc1cc2ccccc2o1` (stereo not shown) [Example 212, 2-[(Benzofuran-2-ylmethyl)-amino]-3-(1H-indol-3-yl)-N-(2-pyrrol-1-yl-ethyl)-propionamide], for which the IC50 stood at 658 nM.
On the same count and under the same terms, next, `Cc1cccc(CNC(=O)C(Cc2c[nH]c3ccccc23)NCc2cc3ccccc3o2)c1` (stereo not shown) [Example 252, 2-[(Benzofuran-2-ylmethyl)-amino]-3-(1H-indol-3-yl)-N-(3-methyl-benzyl)-propionamide]: 33 nM; `O=C(NC1CCC(O)CC1)C(Cc1c[nH]c2ccccc12)NCc1cc2ccccc2o1` (stereo not shown) [Example 273, 2-[(Benzofuran-2-ylmethyl)-amino]-N-(4-hydroxy-cyclohexyl)-3-(1H-indol-3-yl)-propionamide]: over 10000 nM; `O=C(NCc1ccc([N+](=O)[O-])o1)C(Cc1c[nH]c2ccccc12)NCc1cc2ccccc2o1` (stereo not shown) [Example 216, 2-[(Benzofuran-2-ylmethyl)-amino]-3-(1H-indol-3-yl)-N-(5-nitro-furan-2-ylmethyl)-propionamide]: over 10000 nM.
Consider `CC(Cc1ccc(Cl)cc1)NC(=O)C(Cc1c[nH]c2ccccc12)NCc1cc2ccccc2o1` (stereo not shown) [Example 282, 2-[(Benzofuran-2-ylmethyl)-amino]-N-[2-(4-chloro-phenyl)-1-methyl-ethyl]-3-(1H-indol-3-yl)-propionamide], for which the IC50 stood at 833 nM.
`CC(NC(=O)C(Cc1c[nH]c2ccccc12)NCc1cc2ccccc2o1)c1ccccc1` (stereo not shown) [Example 234, 2-[(Benzofuran-2-ylmethyl)-amino]-3-(1H-indol-3-yl)-N-(1-phenyl-ethyl)-propionamide]: the IC50 came to 75 nM.
Same read-out and setting: the same measure for `CC(NC(=O)C(Cc1c[nH]c2ccccc12)NCc1cc2ccccc2o1)c1ccc(F)cc1` (stereo not shown) [Example 235, 2-[(Benzofuran-2-ylmethyl)-amino]-N-[1-(4-fluoro-phenyl)-ethyl]-3-(1H-indol-3-yl)-propionamide]: 3 nM.
The same measure, in the same setting: the same measure for `CC(NC(=O)C(Cc1c[nH]c2ccccc12)NCc1cc2ccccc2o1)c1ccn(C)c1` (stereo not shown) [Example 230, 2-[(Benzofuran-2-ylmethyl)-amino]-3-(1H-indol-3-yl)-N-[1-(1-methyl-1H-pyrrol-3-yl)-ethyl]-propionamide]: 21 nM.

Staying with this test, now noted: Table 4; [125I]Bolton-Hunter substance P displacement, human IM9 cells; read-out: IC50 (nM) hNK1.
Take `CC(NC(=O)C(C)(Cc1c[nH]c2ccccc12)NCc1ccncc1)c1ccccc1` (stereo not shown) [compound 359, 3-(1H-Indol-3-yl)-2-methyl-N-(1-phenyl-ethyl)-2-[(pyridin-4-ylmethyl)-amino]-propionamide]: the IC50 was 3710 nM.
Still for that read-out and setting: the same measure for “3-(1H-Indol-3-yl)-2-methyl-N-(1-phenyl-ethyl)-2-[4-(4-phenyl-piperidin-1-yl)-benzylamino]-propionamide [compound 334]”: over 10000 nM.
As to `CC(NC(=O)C(C)(Cc1c[nH]c2ccccc12)NCc1ccc2c(c1)OCO2)c1ccccc1` (stereo not shown) [compound 349, 2-[(Benzo[1,3]dioxol-5-ylmethyl)-amino]-3-(1H-indol-3-yl)-2-methyl-N-(1-phenyl-ethyl)-propionamide], the concentration for half-maximal inhibition (IC50) came out at 356 nM.
Take `CC(NC(=O)C(C)(Cc1c[nH]c2ccccc12)NCc1ccc(-c2ccccc2)cc1)c1ccccc1` (stereo not shown) [compound 348, 2-[(Biphenyl-4-ylmethyl)-amino]-3-(1H-indol-3-yl)-2-methyl-N-(1-phenyl-ethyl)-propionamide]: the IC50 is 5560 nM.
`CC(NC(=O)C(C)(Cc1c[nH]c2ccccc12)NCc1nc2ccccc2[nH]1)c1ccccc1` (stereo not shown) [compound 316, 2-[(1H-Benzoimidazol-2-ylmethyl)-amino]-3-(1H-indol-3-yl)-2-methyl-N-(1-phenyl-ethyl)-propionamide]: the IC50 was over 10000 nM.

Staying with this test, now noted: Table 5; [125I]Bolton-Hunter substance P displacement, human IM9 cells; read-out: IC50 (nM) hNK1.
With `CSc1ccc(CNC(Cc2c[nH]c3ccccc23)C(=O)NC(C)c2ccccc2)cc1` (stereo not shown) [compound 383], the half-maximal inhibitory concentration (IC50) worked out at 252 nM.
Take `CC(NC(=O)C(Cc1c[nH]c2ccccc12)NCc1cccc(OCc2ccccc2)c1)c1ccccc1` (stereo not shown) [compound 382]: the IC50 is over 10000 nM.
The same measure, in the same setting: the same measure for `CC(NC(=O)C(Cc1c[nH]c2ccccc12)NCc1coc2ccccc2c1=O)c1ccccc1` (stereo not shown) [compound 371]: over 10000 nM; for `CC(NC(=O)C(Cc1c[nH]c2ccccc12)NCc1ccc(Oc2ccccc2)cc1)c1ccccc1` (stereo not shown) [compound 384]: 2350 nM.
On the same count and under the same terms, the same measure for `CC(NC(=O)C(Cc1c[nH]c2ccccc12)NCC(Cc1ccccc1)c1ccccc1)c1ccccc1` (stereo not shown) [compound 370]: 534 nM.

The test is the same for the next values; noted with them: human NK1 receptor, IM9 cells, [125I]Bolton-Hunter substance P; read-out: IC50 (nM) hNK1.
As to `CC(Cc1c[nH]c2ccccc12)(NCc1cc2ccccc2o1)C(=O)NCCc1ccccn1` (stereo not shown) [compound 45, 2-[(Benzofuran-2-ylmethyl)-amino]-3-(1H-indol-3-yl)-2-methyl-N-(2-pyridin-2-yl-ethyl)-propionamide], the IC50 stood at 913 nM.
Regarding `CC(Cc1c[nH]c2ccccc12)(NCc1cc2ccccc2o1)C(=O)NCC1CC2CCC1C2` (stereo not shown) [compound 165, 2-[(Benzofuran-2-ylmethyl)-amino]-N-bicyclo[2.2.1]hept-2-ylmethyl-3-(1H-indol-3-yl)-2-methyl-propionamide], the IC50 is over 10000 nM.
Still for that read-out and setting: next, `CC(Cc1c[nH]c2ccccc12)(NCc1cc2ccccc2o1)C(=O)NCC1Cc2ccccc2CN1` (stereo not shown) [compound 108, 2-[(Benzofuran-2-ylmethyl)-amino]-3-(1H-indol-3-yl)-2-methyl-N-(1,2,3,4-tetrahydro-isoquinolin-3-ylmethyl)-propionamide]: 4570 nM.
Same read-out and setting: the same measure for `CC(Cc1c[nH]c2ccccc12)(NCc1cc2ccccc2o1)C(=O)NCC1(c2ccccc2)CC1` (stereo not shown) [compound 110, 2-[(Benzofuran-2-ylmethyl)-amino]-3-(1H-indol-3-yl)-2-methyl-N-(1-phenyl-cyclopropylmethyl)-propionamide]: 1140 nM; for `CC(Cc1c[nH]c2ccccc12)(NCc1cc2ccccc2o1)C(=O)NCC(CC(=O)O)c1ccc(Cl)cc1` (stereo not shown) [compound 84, 4-[2-[(Benzofuran-2-ylmethyl)-amino]-3-(1H-indol-3-yl)-2-methyl-propionylamino]-3-(4-chloro-phenyl)-butyric acid]: over 10000 nM.
As for `CC(Cc1c[nH]c2ccccc12)(NCc1cc2ccccc2o1)C(=O)NCc1cc(Cl)sc1Cl` (stereo not shown) [compound 109, 2-[(Benzofuran-2-ylmethyl)-amino]-N-(2,5-dichloro-thiophen-3-ymethyl)-3-(1H-indol-3-yl)-2-methyl-propionamide], the IC50 worked out at 279 nM.
Consider `CC(Cc1c[nH]c2ccccc12)(NCc1cc2ccccc2o1)C(=O)NCc1c(N)cccc1F` (stereo not shown) [compound 48, N-(2-Amino-6-fluoro-benzyl)-2-[(benzofuran-2-ylmethyl)-amino]-3-(1H-indol-3-yl)-2-methyl-propionamide], for which the IC50 was determined as 6420 nM.
In the case of `COC(=O)C(Cc1c[nH]cn1)NC(=O)C(C)(Cc1c[nH]c2ccccc12)NCc1cc2ccccc2o1` (stereo not shown) [compound 176, 2-[2-[(Benzofuran-2-ylmethyl)-amino]-3-(1H-indol-3-yl)-2-methyl-propionylamino]-3-(1H-imidazol-4-yl)-propionic acid methyl ester], the IC50 was found to be 1760 nM.
For `COC1C=CC(CNC(=O)C(C)(Cc2c[nH]c3ccccc23)NCc2cc3ccccc3o2)(OC)O1` (stereo not shown) [compound 149, 2-[(Benzofuran-2-ylmethyl)-amino]-N-(2,5-dimethoxy-2,5-dihydro-furan-2-ylmethyl)-3-(1H-indol-3-yl)-2-methyl-propionamide], the IC50 is over 10000 nM.
On the same count and under the same terms, next, `CC(Cc1c[nH]c2ccccc12)(NCc1cc2ccccc2o1)C(=O)NCC(=O)N1CCOCC1` (stereo not shown) [compound 173, 2-[(Benzofuran-2-ylmethyl)-amino]-3-(1H-indol-3-yl)-2-methyl-N-(2-morpholin-4-yl-2-oxo-ethyl)-propionamide]: over 10000 nM.
Take `CC(Cc1c[nH]c2ccccc12)(NCc1cc2ccccc2o1)C(=O)NCc1ccc(C(=O)O)cc1` (stereo not shown) [compound 171, 4-{[2-[(Benzofuran-2-ylmethyl)-amino]-3-(1H-indol-3-yl)-2-methyl-propionylamino]-methyl}-benzoic acid]: the IC50 is over 10000 nM.
The same measure, in the same setting: next, `CC(Cc1c[nH]c2ccccc12)(NCc1cc2ccccc2o1)C(=O)NCC1(O)CCCCC1` (stereo not shown) [compound 116, 2-[(Benzofuran-2-ylmethyl)-amino]-N-(1-hydroxy-cyclohexylmethyl)-3-(1H-indol-3-yl)-2-methyl-propionamide]: over 10000 nM; `COc1cccc(CNC(=O)C(C)(Cc2c[nH]c3ccccc23)NCc2cc3ccccc3o2)c1` (stereo not shown) [compound 55, 2-[(Benzofuran-2-ylmethyl)-amino]-3-(1H-indol-3-yl)-N-(3-methoxy-benzyl)-2-methyl-propionamide]: 643 nM.
As for `CC(Cc1c[nH]c2ccccc12)(NCc1cc2ccccc2o1)C(=O)NCc1cccc(N)c1` (stereo not shown) [compound 178, N-(3-Amino-benzyl)-2-[(benzofuran-2-ylmethyl)-amino]-3-(1H-indol-3-yl)-2-methyl-propionamide], the IC50 is 1370 nM.
Still for that read-out and setting: the same measure for `CC(NC(=O)C(C)(Cc1c[nH]c2ccccc12)NCc1cc2ccccc2o1)c1ccc([N+](=O)[O-])cc1` (stereo not shown) [compound 34, 2-[(Benzofuran-2-ylmethyl)-amino]-3-(1H-indol-3-yl)-2-methyl-N-[1-(4-nitro-phenyl)-ethyl]-propionamide]: 14 nM.
